Measurements published in patent publication US11578100B2, “Cyclic peptides, cyclic peptide conjugates and methods of use thereof” (Florida Atlantic University Board of Trustees, priority 2018, dated 2023).
Where a SMILES comes first, the peptide text is derived from it. Bridges are numbered along the chain shown (N, C = ends). Where no end group is shown, it is not given here. [ ]: non-standard residue; d: D form. Trp(5-OH) = N[C@@H](Cc1c[nH]c2ccc(O)cc12)C(=O)O; Tic = O=C(O)[C@@H]1Cc2ccccc2CN1

How the values were obtained:
mice [1] = assay: observation of adverse effects after i.n. administration
mice [2] = assay: rotarod test of motor coordination; conditions: peptides i.n.; U50,488 i.p.
DOR = target: T1, DOR (Mus musculus, UniProt P32300); assay: antagonism of i.c.v. SNC-80 after i.n. pretreatment; type: in vivo; conditions: SNC-80 i.c.v.
T1 construct: from tissue; host or cells: living mouse (CNS); SNC-80 i.c.v. after i.n. TIPP-OL
T1 sequence (P32300 whole entry): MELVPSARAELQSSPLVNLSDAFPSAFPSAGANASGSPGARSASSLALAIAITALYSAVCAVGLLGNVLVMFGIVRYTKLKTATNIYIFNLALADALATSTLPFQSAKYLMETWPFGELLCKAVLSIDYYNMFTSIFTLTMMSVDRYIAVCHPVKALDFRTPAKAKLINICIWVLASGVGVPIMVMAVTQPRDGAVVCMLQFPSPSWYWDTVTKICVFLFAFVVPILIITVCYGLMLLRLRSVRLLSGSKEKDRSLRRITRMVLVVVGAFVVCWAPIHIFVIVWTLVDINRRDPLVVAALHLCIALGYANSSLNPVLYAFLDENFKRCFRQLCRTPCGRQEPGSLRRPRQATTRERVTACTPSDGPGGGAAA

δ opioid receptor (DOR) = target: T2, δ opioid receptor (DOR) (Homo sapiens, UniProt P41143); assay: opioid receptor protein binding radioassay, DOR
T2 construct: expressed in transfected cells; host or cells: CHO cells
T2 sequence (P41143 whole entry): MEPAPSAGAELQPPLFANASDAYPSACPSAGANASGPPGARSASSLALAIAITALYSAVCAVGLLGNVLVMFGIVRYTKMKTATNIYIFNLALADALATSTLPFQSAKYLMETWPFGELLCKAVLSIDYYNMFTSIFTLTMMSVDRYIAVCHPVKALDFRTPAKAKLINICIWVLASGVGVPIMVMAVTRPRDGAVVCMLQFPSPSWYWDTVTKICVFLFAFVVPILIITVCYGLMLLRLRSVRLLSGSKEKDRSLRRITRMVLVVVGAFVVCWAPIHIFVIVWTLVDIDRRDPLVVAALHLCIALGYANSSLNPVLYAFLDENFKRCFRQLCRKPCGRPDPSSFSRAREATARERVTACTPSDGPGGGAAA

[3] = stability in 100% mouse brain homogenate; type: in vitro ADME; conditions: 37° C., RP-HPLC and MALDI TOF MS
Protocol: Peptides Stability Under Physiologically Relevant Conditions and Mode of Action Stability of DADLE-OL in 100% human cerebrospinal fluid and 100% mouse brain homogenate at 37° C. was determined. The disappearance of the intact peptides and formation of proteolytic products was monitored by RP-HPLC and MALDI TOF mass spectrometry. […] Once diffused into the brain, DOR active sequence is released due to proteolytic hydrolysis of DADLE-OL. Fragment 1 was synthesized, and activities of the parent DADLE-OL and fragment 1 were tested in the cAMP inhibition assay (cAMP AlphaScreen™ Assay, Perkin Elmer).

[4] = peptide level in mouse brain after i.n. or i.p. administration (LC-MS/MS)
κ opioid receptor (KOR) = target: T3, κ opioid receptor (KOR) (Homo sapiens, UniProt P41145); assay: opioid receptor protein binding radioassay, KOR
T3 construct: expressed in transfected cells; host or cells: CHO cells
T3 sequence (P41145 whole entry): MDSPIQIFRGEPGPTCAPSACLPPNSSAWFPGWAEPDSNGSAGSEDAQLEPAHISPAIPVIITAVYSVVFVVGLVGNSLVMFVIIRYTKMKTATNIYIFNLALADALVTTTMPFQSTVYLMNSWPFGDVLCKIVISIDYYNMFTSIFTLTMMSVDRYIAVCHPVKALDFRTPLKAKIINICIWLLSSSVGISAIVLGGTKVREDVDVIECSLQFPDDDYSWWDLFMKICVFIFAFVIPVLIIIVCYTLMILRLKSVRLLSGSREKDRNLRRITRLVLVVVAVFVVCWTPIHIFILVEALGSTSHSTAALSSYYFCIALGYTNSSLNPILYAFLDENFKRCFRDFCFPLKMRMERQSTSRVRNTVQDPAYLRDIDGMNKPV

μ opioid receptor (MOR) = target: T4, μ opioid receptor (MOR) (Homo sapiens, UniProt P35372); assay: opioid receptor protein binding radioassay, MOR
T4 construct: expressed in transfected cells; host or cells: CHO cells
T4 sequence (P35372 whole entry): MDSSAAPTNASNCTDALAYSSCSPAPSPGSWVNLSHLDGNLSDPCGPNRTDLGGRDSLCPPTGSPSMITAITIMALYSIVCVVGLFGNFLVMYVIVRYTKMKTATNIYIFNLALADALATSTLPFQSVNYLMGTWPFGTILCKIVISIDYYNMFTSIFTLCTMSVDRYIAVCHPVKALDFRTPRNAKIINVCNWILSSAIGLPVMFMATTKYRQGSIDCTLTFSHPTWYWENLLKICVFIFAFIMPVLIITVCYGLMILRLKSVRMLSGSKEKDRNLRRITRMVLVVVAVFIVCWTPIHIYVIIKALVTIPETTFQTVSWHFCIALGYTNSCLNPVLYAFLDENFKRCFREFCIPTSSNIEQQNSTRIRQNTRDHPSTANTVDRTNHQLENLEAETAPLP

mice [5] = assay: 55° C. warm water tail-withdrawal test; type: in vivo, mouse; conditions: i.n. administration
mice [6] = assay: conditioned place preference / aversion; conditions: mouse, in vivo
[7] = 30 min after intranasal delivery
Text: Anatomical and physiological studies identified the midbrain periaqueductal gray (PAG) and its descending projections to the rostral ventromedial medulla (RVM) and spinal cord dorsal horn, as a primary anatomical pathway mediating opioid-based analgesia.

## CC(C)C[C@@H]1NC(=O)[C@H](CCCCN)NC(=O)[C@@H]2CCCN2C(=O)[C@H](Cc2c[nH]c3ccccc23)NC(=O)[C@H](Cc2ccccc2)NC(=O)CNC(=O)[C@H](CCCNC(=N)N)NC(=O)[C@H](Cc2ccccc2)NC(=O)[C@@H](NC(=O)[C@H](CCCCN)NC(=O)[C@@H]2CCCN2C(=O)[C@H](CO)NC(=O)[C@H](C)NC(=O)[C@@H](N)Cc2ccc(O)cc2)CSSC[C@@H](C(=O)N[C@H](C(N)=O)[C@@H](C)O)NC(=O)[C@H](C)NC1=O [OLKOR-L1, Y^1A^2S^3P^4K^5-cyclo[C^6F^7R^8G^9F^10W^11P^12K^13L^14A^15C^16]T^17] (H-YASPKCFRGFWPKLACT-NH2; disulfide 6-16)
Mice [1]
  adverse effects: no other adverse effects were observed
Mice [2]
  motor coordination in rotarod test: no impairment in motor coordination in mice was observed

## Y^1A^2S^3P^4K^5-cyclo[C^6F^7R^8Y^9Tic^10F^11F^12V^13L^14A^15C^16]T^17 (YASPKCFRY[Tic]FFVLACT; disulfide 6-16 (inferred)) [TIPP-OL]
DOR
  antagonism of the effect of SNC-80: fully antagonizes the effect of a potent DOR agonist SNC-80

## CC(C)C[C@@H]1NC(=O)[C@H](C(C)C)NC(=O)CNC(=O)[C@H](CC(N)=O)NC(=O)[C@@H]2CCCN2C(=O)[C@H](Cc2ccc(O)cc2)NC(=O)[C@H](CCCNC(=N)N)NC(=O)[C@H](Cc2ccccc2)NC(=O)[C@@H](NC(=O)[C@H](CCCCN)NC(=O)[C@@H]2CCCN2C(=O)[C@H](CO)NC(=O)[C@H](C)NC(=O)[C@@H](N)Cc2ccc(O)cc2)CSSC[C@@H](C(=O)N[C@H](C(N)=O)[C@@H](C)O)NC(=O)[C@H](C)NC1=O [OL, Y^1A^2S^3P^4K^5-cyclo[C^6F^7R^8Y^9P^10N^11G^12V^13L^14A^15C^16]T^17, reference compound] (H-YASPKCFRYPNGVLACT-NH2; disulfide 6-16; N-terminus and C-terminus assumed)
δ opioid receptor (DOR)
  Kd opioid receptor δ: n.o.
[3]
  stability in 100% mouse brain homogenate: proteolytic cleavage of the N-terminal Tyr^1 and Ala^2
[4]; 30 minutes after i.n. (30 μg, 6 μL/nostril)
  detection in mouse brain after i.n. administration: can be detected in the mouse brain
[4]; after i.n. administration
  time to elimination from the brain: about 240 minutes
κ opioid receptor (KOR)
  Kd opioid receptor K: n.o.
Mice [1]
  adverse effects: no adverse effects were observed
μ opioid receptor (MOR)
  Kd opioid receptor μ: n.o.

## Y^1P^2W^3F^4K^5-cyclo[C^6F^7R^8Y^9Tic^10F^11F^12V^13L^14A^15C^16]T^17 (YPWFKCFRY[Tic]FFVLACT; disulfide 6-16 (inferred)) [TIPP-EM1-OL]
Mice [5]
  antinociception in tail-withdrawal test: exhibits antinociceptive effects

## CC(C)C[C@@H](NC(=O)[C@H](Cc1ccccc1)NC(=O)CNC(=O)[C@@H](C)NC(=O)[C@@H](N)Cc1ccc(O)cc1)C(=O)O [DADLE, [D-Ala^2, D-Leu^5] enkephalin, reference compound]
Mice [5]
  antinociception in tail-withdrawal test: did not themselves produce antinociception

## CC(C)C[C@@H]1NC(=O)[C@H](CC(N)=O)NC(=O)[C@H](C(C)C)NC(=O)[C@@H]2CCCN2C(=O)[C@H](Cc2ccccc2)NC(=O)[C@H](Cc2c[nH]cn2)NC(=O)[C@H](CCCNC(=N)N)NC(=O)[C@H](Cc2ccccc2)NC(=O)[C@@H](NC(=O)[C@H](CCCCN)NC(=O)[C@@H]2CCCN2C(=O)[C@H](CO)NC(=O)[C@H](C)NC(=O)[C@@H](N)Cc2ccc(O)cc2)CSSC[C@@H](C(=O)N[C@H](C(N)=O)[C@@H](C)O)NC(=O)[C@H](C)NC1=O [OLMOR-L1, Y^1A^2S^3P^4K^5-cyclo[C^6F^7R^8H^9F^10P^11V^12N^13L^14A^15C^16]T^17] (H-YASPKCFRHFPVNLACT-NH2; disulfide 6-16)
Mice [6]
  conditioned place aversion (CPA): did not induce significant conditioned place preference or aversion
  conditioned place preference (reward): did not induce significant conditioned place preference or aversion
Mice [2]
  motor coordination in rotarod test: did not affect motor coordination and balance

## CC(C)C[C@@H]1NC(=O)[C@H](CCCCN)NC(=O)[C@@H]2CCCN2C(=O)[C@H](Cc2c[nH]c3ccccc23)NC(=O)[C@H](Cc2ccccc2)NC(=O)CNC(=O)[C@H](CCCNC(=N)N)NC(=O)[C@H](Cc2ccccc2)NC(=O)[C@@H](NC(=O)[C@H](CCCCN)NC(=O)[C@@H]2CCCN2C(=O)[C@H](CO)NC(=O)[C@H](C)NC(=O)[C@@H](N)Cc2c[nH]c3ccc(O)cc23)CSSC[C@@H](C(=O)N[C@H](C(N)=O)[C@@H](C)O)NC(=O)[C@H](C)NC1=O [OLKOR-L1-5HTrp, 5-HTrp^1-A^2S^3P^4K^5-cyclo[C^6F^7R^8G^9F^10W^11P^12K^13L^14A^15C^16]T^17] (H-[Trp(5-OH)]ASPKCFRGFWPKLACT-NH2; disulfide 6-16)
Mice [6]
  conditioned place aversion (CPA): produced CPA
  conditioned place preference (reward): do not produce reward
[7]
  5-HTrp accumulation in the midbrain: significant increase in 5-HTrp accumulation in the midbrain
